The numbers were not newly measured in patent US20100254946A1, “MAINTENANCE OF HAIR GROWTH AND TREATMENT OF HAIR-LOSS” (LIFE & BRAIN GMBH, priority 2007, published 2010), which cites them from elsewhere.

“Also recorded” adds a separate entry of the source.

One series concerns hair growth. Conditions: mouse model, previously shown.
In series [1] the target is T1, P2Y5 mutant p.Lys125AsnfsX37 (Homo sapiens, UniProt P43657).
T1 construct: premature termination of translation of the P2Y5 receptor protein (p.Lys125AsnfsX37; expressed in transfected cells; vector pcDNA5/FRT/V5-His), transiently transfected with pCRE-luc
T1 sequence (P43657 with tags, fused parts or gaps): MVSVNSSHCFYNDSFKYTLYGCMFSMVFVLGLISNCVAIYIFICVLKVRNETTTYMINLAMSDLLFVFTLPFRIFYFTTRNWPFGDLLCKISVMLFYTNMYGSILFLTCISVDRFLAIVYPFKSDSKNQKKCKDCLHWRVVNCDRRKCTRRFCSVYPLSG
To be noted: P2Y5 mutant p.Lys125AsnfsX37, LPA used as ligand.

In the next series the target is T2, P2Y5 receptor (Homo sapiens, UniProt P43657).
T2 sequence (P43657 1-344): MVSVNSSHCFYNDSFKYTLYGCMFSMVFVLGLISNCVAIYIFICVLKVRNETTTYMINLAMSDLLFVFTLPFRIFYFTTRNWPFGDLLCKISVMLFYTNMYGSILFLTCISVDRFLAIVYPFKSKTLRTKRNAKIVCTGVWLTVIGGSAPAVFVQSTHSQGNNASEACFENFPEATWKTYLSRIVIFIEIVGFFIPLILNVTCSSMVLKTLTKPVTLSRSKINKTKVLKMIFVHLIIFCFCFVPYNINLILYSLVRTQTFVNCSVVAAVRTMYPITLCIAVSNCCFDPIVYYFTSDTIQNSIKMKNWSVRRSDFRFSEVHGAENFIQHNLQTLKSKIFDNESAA

Regarding `CCCCCCCC/C=C\CCCCCCCC(=O)OC[C@@H](O)COP(=O)(O)O` [LPA, oleoyl-L-alpha-lysophosphatidic acid], the “stimulation of hair growth” value with hair growth is on record as “stimulate hair growth in vivo”. The “activation of a CRE luciferase reporter gene” value in series [1] is reported as “not capable of activating a CRE luciferase reporter gene”. In addition, the “ligand for the P2Y5 receptor” value on P2Y5 receptor was “is a ligand of the P2Y5 receptor; also recorded: is a ligand for the P2Y5 receptor”.
